Read-outs that look alike come from different tables or passages of the source.
Assays:
Test in all cases: receptor-mediated PP2C (HAB1) inhibition in vitro assay
Type in all cases: biochemical
PYL9 = target: T1, PYL9 (Arabidopsis thaliana, UniProt Q84MC7); conditions: for remaining activity at 25 µM: compound at 25 μM, control without agonist = 100%; for remaining activity at 50 µM: 50 uM of the test compound
T1 construct: 6X-His; made in house; host or cells: E. coli BL21[DE3]pLysS
T1 sequence (Q84MC7 1-187): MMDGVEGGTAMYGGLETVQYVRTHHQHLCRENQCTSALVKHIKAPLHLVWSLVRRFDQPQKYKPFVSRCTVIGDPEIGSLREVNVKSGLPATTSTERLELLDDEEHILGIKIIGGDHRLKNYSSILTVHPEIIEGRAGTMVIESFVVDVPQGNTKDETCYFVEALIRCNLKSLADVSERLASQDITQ
T1 sequence (Q9CAJ0 23-511 partner): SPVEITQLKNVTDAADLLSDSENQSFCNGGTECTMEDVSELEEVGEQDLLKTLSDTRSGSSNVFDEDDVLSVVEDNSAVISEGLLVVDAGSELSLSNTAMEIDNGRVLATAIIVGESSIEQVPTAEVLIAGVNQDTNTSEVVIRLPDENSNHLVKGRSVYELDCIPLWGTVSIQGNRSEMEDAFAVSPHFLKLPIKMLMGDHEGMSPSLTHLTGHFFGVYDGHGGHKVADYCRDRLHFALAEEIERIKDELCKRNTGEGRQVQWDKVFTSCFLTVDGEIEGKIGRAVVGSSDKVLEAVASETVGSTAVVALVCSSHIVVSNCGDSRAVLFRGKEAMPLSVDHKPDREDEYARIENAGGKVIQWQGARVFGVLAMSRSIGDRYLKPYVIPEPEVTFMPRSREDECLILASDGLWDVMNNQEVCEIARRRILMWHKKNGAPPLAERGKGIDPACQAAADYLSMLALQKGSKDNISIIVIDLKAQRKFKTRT
In short: (§1)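 Fluorogenic readout: 4-methylumbelliferyl-phosphate hydrolysis by 50 nM GST-HAB1 plus 2:1 His-receptor; Tris-OAc pH 7.9, NaCl, 1 mM MnCl2, β-ME. Compounds at 25 μM or 50 uM single dose; IC50 from dose curves for selected compounds.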

PYL8 = target: T2, PYL8 (Arabidopsis thaliana, UniProt Q9FGM1); conditions: for remaining activity at 25 µM: compound at 25 μM, control without agonist = 100%; for remaining activity at 50 µM: 50 uM of the test compound
T2 construct: 6X-His; made in house; host or cells: E. coli BL21[DE3]pLysS
T2 sequence (Q9FGM1 1-188): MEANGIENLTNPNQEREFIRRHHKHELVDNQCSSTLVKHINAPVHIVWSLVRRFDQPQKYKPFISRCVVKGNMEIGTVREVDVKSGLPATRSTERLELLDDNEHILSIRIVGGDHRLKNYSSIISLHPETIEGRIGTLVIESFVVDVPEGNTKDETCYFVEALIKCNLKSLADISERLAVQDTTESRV
T2 sequence (Q9CAJ0 23-511 partner): T1 sequence (Q9CAJ0 23-511 partner)
In short: as §1

PYL11 = target: T3, PYL11 (Arabidopsis thaliana, UniProt Q9FJ50); conditions: for remaining activity at 50 µM: 50 uM of the test compound
T3 construct: made in house; host or cells: E. coli BL21[DE3]pLysS
T3 sequence (Q9FJ50 1-161): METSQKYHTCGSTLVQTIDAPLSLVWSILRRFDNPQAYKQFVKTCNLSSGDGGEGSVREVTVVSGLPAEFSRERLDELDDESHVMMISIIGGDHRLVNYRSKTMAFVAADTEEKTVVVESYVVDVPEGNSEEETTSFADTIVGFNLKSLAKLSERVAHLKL
T3 sequence (Q9CAJ0 23-511 partner): T1 sequence (Q9CAJ0 23-511 partner)
In short: (§2)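 Compounds, tested at 25 μM or 50 uM with ABA at 10 uM, were incubated with recombinant receptor and 50 nM GST-HAB1 (2:1 ratio) in MnCl2-containing Tris-OAc buffer, pH 7.9. Phosphatase activity was followed by 4-methylumbelliferyl-phosphate fluorescence.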

PYL6 = target: T4, PYL6 (Arabidopsis thaliana, UniProt Q8S8E3); conditions: for remaining activity at 50 µM: 50 uM of the test compound
T4 construct: 6X-His; made in house; host or cells: E. coli BL21[DE3]pLysS
T4 sequence (Q8S8E3 1-215): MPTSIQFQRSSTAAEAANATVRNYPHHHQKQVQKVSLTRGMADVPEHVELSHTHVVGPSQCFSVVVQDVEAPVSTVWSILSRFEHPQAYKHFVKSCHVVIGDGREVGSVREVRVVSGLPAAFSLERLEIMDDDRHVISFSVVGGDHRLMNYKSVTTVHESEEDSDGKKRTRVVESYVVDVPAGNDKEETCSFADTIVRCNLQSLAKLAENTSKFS
T4 sequence (Q9CAJ0 23-511 partner): T1 sequence (Q9CAJ0 23-511 partner)
In short: as §2

PYL5 = target: T5, PYL5 (Arabidopsis thaliana, UniProt Q9FLB1); conditions: for remaining activity at 25 µM: compound at 25 μM, control without agonist = 100%; for remaining activity at 50 µM: 50 uM of the test compound
T5 construct: 6X-His; made in house; host or cells: E. coli BL21[DE3]pLysS
T5 sequence (Q9FLB1 1-203): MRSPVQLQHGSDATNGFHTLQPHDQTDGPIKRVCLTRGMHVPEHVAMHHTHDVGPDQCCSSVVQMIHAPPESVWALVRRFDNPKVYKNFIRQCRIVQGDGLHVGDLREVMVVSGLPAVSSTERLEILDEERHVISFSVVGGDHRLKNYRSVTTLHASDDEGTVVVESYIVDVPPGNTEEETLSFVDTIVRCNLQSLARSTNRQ
T5 sequence (Q9CAJ0 23-511 partner): T1 sequence (Q9CAJ0 23-511 partner)
In short: as §2

PYL10 = target: T6, PYL10 (Arabidopsis thaliana, UniProt Q8H1R0); conditions: for remaining activity at 50 µM: 50 uM of the test compound
T6 construct: 6X-His; made in house; host or cells: E. coli BL21[DE3]pLysS
T6 sequence (Q8H1R0 1-183): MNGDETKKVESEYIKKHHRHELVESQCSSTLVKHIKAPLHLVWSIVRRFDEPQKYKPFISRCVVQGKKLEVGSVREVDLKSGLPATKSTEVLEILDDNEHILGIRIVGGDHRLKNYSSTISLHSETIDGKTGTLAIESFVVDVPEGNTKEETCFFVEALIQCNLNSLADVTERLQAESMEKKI
T6 sequence (Q9CAJ0 23-511 partner): T1 sequence (Q9CAJ0 23-511 partner)
In short: as §2

[1] = Table VII, read-out: PP2C Dose Curves PYL9 (IC50)
[2] = Table VII, read-out: PP2C Dose Curves PYL8 (IC50)
[3] = Table VII, read-out: PP2C Dose Curves PYL11 (IC50)
[4] = Table VII, read-out: PP2C Dose Curves PYL6 (IC50)
[5] = Table VII, read-out: PP2C Dose Curves PYL5 (IC50)
[6] = Table VII, read-out: PP2C Dose Curves PYL10 (IC50)
[7] = Table XII-B, calculated from dose curves, read-out: PP2C Activity (IC50 in uM) PYL9
[8] = Table XII-B, calculated from dose curves, read-out: PP2C Activity (IC50 in uM) PYL8
[9] = Table XII-B, calculated from dose curves, read-out: PP2C Activity (IC50 in uM) PYL6
[10] = Table XII-B, calculated from dose curves, read-out: PP2C Activity (IC50 in uM) PYL5
[11] = Table XII-B, calculated from dose curves, read-out: PP2C Activity (IC50 in uM) PYL10

Structure (SMILES)	IC50 (PYL9; [1]) [µM]	remaining activity at 25 µM (PYL9) [%]	IC50 (PYL8; [2]) [µM]	remaining activity at 25 µM (PYL8) [%]	IC50 (PYL11; [3]) [µM]	IC50 (PYL6; [4]) [µM]	IC50 (PYL5; [5]) [µM]	remaining activity at 25 µM (PYL5) [%]	IC50 (PYL10; [6]) [µM]	remaining activity at 50 µM (PYL9) [%]	IC50 (PYL9; [7]) [µM]	remaining activity at 50 µM (PYL8) [%]	IC50 (PYL8; [8]) [µM]	remaining activity at 50 µM (PYL11) [%]	remaining activity at 50 µM (PYL6) [%]	IC50 (PYL6; [9]) [µM]	remaining activity at 50 µM (PYL5) [%]	IC50 (PYL5; [10]) [µM]	remaining activity at 50 µM (PYL10) [%]	IC50 (PYL10; [11]) [µM]	further results
N#Cc1ccc(CS(=O)(=O)NC(=O)C(c2ccccc2)c2ccccc2)cc1 [Compound 71, N-[(4-Cyanophenyl)methanesulfonyl]-2,2-diphenylacetamide]	–	–	–	–	–	–	–	–	–	81.8	> 50	96.8	> 50	43.2	96.9	> 50	102	> 50	86.5	> 50	IC50 (PYL11; Table XII-B, calculated from dose curves, read-out: PP2C Activity (IC50 in uM) PYL11): 25 µM
N#Cc1ccc(CS(=O)(=O)NC(=O)C2(c3ccccc3)CCC2)cc1 [Compound 29]	1.27	14	3.36	28	1.77	> 50	> 50	90	> 50	–	–	–	–	–	–	–	–	–	–	–	–
CC(C)COC(=O)NS(=O)(=O)Cc1ccc(C#N)cc1 [Compound 65, 2-Methylpropyl N-[(4-cyanophenyl)methanesulfonyl]carbamate]	–	–	–	–	–	–	–	–	–	18.6	6.5	35.8	20.4	42.1	58.9	> 50	23.6	14.2	39.2	19.2	–

The next lines start with results.

IC50 (PYL9; [1]) [µM]	remaining activity at 25 µM (PYL9) [%]	IC50 (PYL8; [2]) [µM]	remaining activity at 25 µM (PYL8) [%]	IC50 (PYL11; [3]) [µM]	IC50 (PYL6; [4]) [µM]	IC50 (PYL5; [5]) [µM]	remaining activity at 25 µM (PYL5) [%]	IC50 (PYL10; [6]) [µM]	Structure (SMILES)	remaining activity at 50 µM (PYL9) [%]	IC50 (PYL9; [7]) [µM]	remaining activity at 50 µM (PYL8) [%]	IC50 (PYL8; [8]) [µM]	remaining activity at 50 µM (PYL11) [%]	remaining activity at 50 µM (PYL6) [%]	IC50 (PYL6; [9]) [µM]	remaining activity at 50 µM (PYL5) [%]	IC50 (PYL5; [10]) [µM]	remaining activity at 50 µM (PYL10) [%]	IC50 (PYL10; [11]) [µM]	further results
0.04	8	1.11	16	5.33	> 50	> 50	97	4.46	N#Cc1ccc(CS(=O)(=O)NC(=O)C2(c3ccc(F)cc3)CCCCC2)cc1 [Compound 51]	–	–	–	–	–	–	–	–	–	–	–	PYL9 agonist potency and selectivity (PYL9; five- and six-membered rings at alpha carbon): potent and relatively selective PYL9 agonists
17.4	42	52.4	65	14.7	> 50	29.4	45	17.9	COc1ccccc1C1(C(=O)NS(=O)(=O)Cc2ccc(C#N)cc2)CCC1 [Compound 42]	–	–	–	–	–	–	–	–	–	–	–	–

Source: patent US10757937B2, “Sulfonamides that activate ABA receptors” (The Regents of the University of California, priority 2014, dated 2020)
